Active and inactive are the calls of the source. The calls are words filed in the database; no cut-off is given here.
What was measured:
[1] = system: K562; details: Homo sapiens
[2] = system: K562; details: Homo sapiens; remark: listed apart in the source
[3] = system: K562; details: Homo sapiens; remark: listed apart in the source
[4] = system: HepG2; assay: Growth inhibition of doxorubicin resistant human HepG2 cells after 72 hrs by MTT assay; type: functional, cell-based; details: HepG2, 72 h
[5] = system: K562; assay: Growth inhibition of doxorubicin-resistant human K562 cells after 72 hrs by SRB assay; type: functional, cell-based; details: K562, 72 h
[6] = system: HepG2; assay: Growth inhibition of human HepG2 cells after 72 hrs by MTT assay; type: functional, cell-based; details: HepG2, 72 h
[7] = system: K562; assay: Growth inhibition of human K562 cells after 72 hrs by SRB assay; type: functional, cell-based; details: K562, 72 h
[8] = system: K562; assay: Inhibition of human Pgp-ATPase activity in doxorubicin-resistant K562 cells; type: cell-based
[9] = system: KB-V1; assay: Effect on Pgp expression level in human KB V1 cells at 4 uM after 72 hrs by Western blot; type: functional, cell-based
[10] = system: K562; assay: Effect on Pgp expression level in doxorubicin resistant human K562 cells at 20 uM after 72 hrs by Western blot; type: functional, cell-based
[11] = system: K562; assay: Effect on Pgp expression level in doxorubicin resistant human K562 cells at 8 uM after 72 hrs by Western blot; type: functional, cell-based
[12] = system: K562; assay: Effect on Pgp expression level in doxorubicin resistant human K562 cells at 4 uM after 72 hrs by Western blot; type: functional, cell-based
[13] = system: KB-V1; assay: Effect on Pgp expression level in human KB V1 cells at 20 uM after 72 hrs by Western blot; type: functional, cell-based
[14] = system: HepG2; assay: Increase in monoclonal antibody UIC2 binding to human Pgp in doxorubicin-resistant human HepG2 cells; type: cell-based
[15] = Growth inhibition of human KB V1 cells after 72 hrs by MTT assay; type: functional, cell-based; details: KB-V1, 72 h
[16] = system: HepG2; assay: Inhibition of Pgp mediated Hoechst 33342 efflux in doxorubicin-resistant human HepG2 cells assessed as increase in cellular fluorescence of substrate at 5 uM; type: cell-based; design: scale not given: the % may be the effect or the level left
[17] = system: HepG2; assay: Effect on Pgp expression level in doxorubicin resistant human HepG2 cells at 4 uM after 72 hrs by Western blot; type: functional, cell-based
[18] = system: HepG2; assay: Effect on Pgp expression level in doxorubicin resistant human HepG2 cells at 8 uM after 72 hrs by Western blot; type: functional, cell-based
[19] = system: HepG2; assay: Effect on Pgp expression level in doxorubicin resistant human HepG2 cells at 20 uM after 72 hrs by Western blot; type: functional, cell-based
[20] = Growth inhibition of human KB3-1 cells after 72 hrs by MTT assay; type: functional, cell-based; details: KB 3-1, 72 h
[21] = system: K562; assay: Inhibition of Pgp mediated Hoechst 33342 efflux in doxorubicin-resistant human K562 cells assessed as increase in cellular fluorescence of substrate at 5 uM; type: cell-based; design: scale not given: the % may be the effect or the level left
[22] = system: HepG2; assay: Inhibition of Pgp mediated Hoechst 33342 efflux in doxorubicin-resistant human HepG2 cells assessed as increase in cellular fluorescence of substrate at 10 uM; type: cell-based; design: scale not given: the % may be the effect or the level left
[23] = system: K562; assay: Inhibition of Pgp mediated Rh123 efflux in doxorubicin-resistant human K562 cells assessed as increase in cellular fluorescence of substrate at 10 uM; type: cell-based; design: scale not given: the % may be the effect or the level left
[24] = system: HepG2; assay: Inhibition of Pgp mediated Rh123 efflux in doxorubicin-resistant human HepG2 cells assessed as increase in cellular fluorescence of substrate at 10 uM; type: cell-based; design: scale not given: the % may be the effect or the level left
[25] = system: K562; assay: Inhibition of Pgp mediated Hoechst 33342 efflux in doxorubicin-resistant human K562 cells assessed as increase in cellular fluorescence of substrate at 10 uM; type: cell-based; design: scale not given: the % may be the effect or the level left

Row | SMILES | IC50 [4] [µM] | IC50 [5] [µM] | IC50 [6] [nM] | IC50 [7] [µM] | IC50 [15] [µM] | IC50 [20] [µM] | further results
1 | CC(=O)[C@H]1CC[C@H]2[C@@H]3CCC4=CC(=O)CC[C@]4(C)[C@H]3CC[C@]12C | – | – | – | – | – | – | Km [1]: 6.57 µM; Km [2]: 9.97 µM
2 | COc1ccc(CCN(C)CCC[C@](C#N)(c2ccc(OC)c(OC)c2)C(C)C)cc1OC | – | – | – | – | – | – | Km [3]: 0.89 µM; Km [2]: 0.7 µM
3 | COc1ccc(/C=C/C(=O)OC2c3c(ccc4ccc(=O)oc34)OC(C)(C)C2OC(=O)/C=C/c2ccc(OC)cc2)cc1 (racemic) | 72.6 | 81 | 55200 | 67.6 | – | – | –
4 | COc1ccc(/C=C/C(=O)OC2c3c(ccc4ccc(=O)oc34)OC(C)(C)C2OC(=O)/C=C/c2ccc(OC)c(OC)c2)cc1OC (racemic) | 76.3 | 70 | 54700 | 54.4 | 32.3 | 61.7 | Activity [8]: Active; Activity [9]: inactive; Activity [10]: inactive; Activity [11]: inactive; Activity [12]: inactive; Activity [13]: inactive; Activity [14]: Active; Activity [16]: 200%; Activity [17]: inactive; Activity [18]: inactive; Activity [19]: inactive; Activity [21]: 200%
5 | CC1(C)Oc2ccc3ccc(=O)oc3c2C(OC(=O)/C=C/c2ccccc2)C1OC(=O)/C=C/c1ccccc1 (racemic) | – | – | – | – | – | – | Activity [8]: Active; Activity [22]: 100%; Activity [23]: 20%; Activity [24]: 50%; Activity [14]: inactive; Activity [25]: 100%
6 | COc1ccc(CC(N)C(=O)N[C@H]2[C@@H](O)[C@H](n3cnc4c(N(C)C)ncnc43)O[C@@H]2CO)cc1 (single isomer, unassigned) [PUROMYCIN] | 83.9 | 26.8 | 230 | 0.22 | 79.3 | 0.21 | –
7 | COc1cccc2c1C(=O)c1c(O)c3c(c(O)c1C2=O)C[C@@](O)(C(=O)CO)C[C@@H]3O[C@H]1C[C@H](N)[C@H](O)[C@H](C)O1 [DOXORUBICIN] | – | – | – | – | 32 | 0.18 | –
8 | CC(=O)O[C@H]1C(=O)[C@@]2(C)[C@H]([C@H](OC(=O)c3ccccc3)[C@]3(O)C[C@H](OC(=O)[C@H](O)[C@@H](NC(=O)c4ccccc4)c4ccccc4)C(C)=C1C3(C)C)[C@]1(OC(C)=O)CO[C@@H]1C[C@@H]2O [PACLITAXEL] | 4.15 | 4.14 | 7 | – | 8 | 0.002 | –
9 | CC[C@]1(O)C[C@@H]2CN(CCc3c([nH]c4ccccc34)[C@@](C(=O)OC)(c3cc4c(cc3OC)N(C)[C@H]3[C@@](O)(C(=O)OC)[C@H](OC(C)=O)[C@]5(CC)C=CCN6CC[C@]43[C@@H]65)C2)C1 [VINBLASTINE] | 0.44 | 0.17 | 0.07 | 0.00088 | 1.04 | 0.00011 | –

Source: ChEMBL document CHEMBL1143069, “Methoxylation of 3',4'-aromatic side chains improves P-glycoprotein inhibitory and multidrug resistance reversal activities of 7,8-pyranocoumarin against cancer cells” (Bioorg Med Chem, 2008)
